Here are results for 1 compound from patent publication US20080292617A1, “ANTIBODY AGAINST A PEPTIDE DERIVED FROM HUMAN MUTANT LAMIN A PROTEIN AND USES THEREOF” (THE TRUSTEES OF COLUMBIA UNIVERSITY IN THE CITY OF NEW YORK, priority 2005, published 2008).

The structures appear in SMILES notation.

Assay [1] relates to progerin (LMNA G608G) in HGPS fibroblasts. Briefly: Immunofluorescence localization of progerin after FTI-277 treatment. Type of assay: cell-based, human. The source says: Indirect immunofluorescence and Western blot: Primary cultures of dermal fibroblasts were processed for indirect immunofluorescence as described previously (Paradisi et al, 2005). Rabbit antibodies directed against A-type and B-type lamins were described previously (Chaudhary et al, 1993; Cance et al, 1992). Goat anti-lamin B1 M-20 and anti-prelamin A C-20 (Santa Cruz), monoclonal antibodies anti-emerin 4G5 (Novocastra), anti-nucleoporin Nup153 clone 414 (Covance), anti-lamin A Jo14 (Serotec), and anti-Ki-67 (BD Bioscience) were purchased. Secondary antibodies were affinity purified Alexa Fluor 488 goat or donkey IgG antibodies (Molecular Probes) and Cy3-conjugated IgG antibodies (Jackson ImmunoResearch laboratories). All samples were counterstained with DAPI (Sigma-Aldrich). When cells were treated daily for 3 days with farnesyltransferase inhibitor FTI-277 (Calbiochem), the culture medium was supplemented with 20 μM FTI-277 or DMSO prior to immunofluorescence analysis as described previously (Adjei et al, 2000). Images were processed using Adobe Photoshop. For Western blot analysis, total cellular protein extracts were isolated from dermal fibroblast cultures at different population doublings (25 to 55) and processed as described previously (Paradisi et al, 2005).
To determine the role of farnesylation in HGPS nuclear abnormalities, control and HGPS fibroblast cultures (PPDs 35-38) were treated daily with 20 μM farnesyltransferase inhibitor FTI-277 (Adjei et al, 2000). After 48 h treatment, the percentage of HGPS nuclei with abnormal shapes decreased from 31% to 8% (FIG. 6A). The intranuclear repartition of prelamin A and the localization of LMNA G608G differed greatly between treated and un-treated cells; prelamin A was not detectable in control or HGPS cells (FIG. 6B). […] Progerin was also detected in nuclear foci similarly to wild-type prelamin A (FIG. 6B).

Assay [2] has as its system HGPS fibroblast cultures. Briefly: Scoring of abnormally shaped nuclei in fibroblast cultures treated with farnesyltransferase inhibitor. The assay is classed as cell-based, human. Particulars: 20 μM FTI-277 daily, after 48 h treatment, HGPS fibroblasts PPDs 35-38; decreased from 31%. The source says:
Indirect immunofluorescence and Western blot: Primary cultures of dermal fibroblasts were processed for indirect immunofluorescence as described previously (Paradisi et al, 2005). Rabbit antibodies directed against A-type and B-type lamins were described previously (Chaudhary et al, 1993; Cance et al, 1992). Goat anti-lamin B1 M-20 and anti-prelamin A C-20 (Santa Cruz), monoclonal antibodies anti-emerin 4G5 (Novocastra), anti-nucleoporin Nup153 clone 414 (Covance), anti-lamin A Jo14 (Serotec), and anti-Ki-67 (BD Bioscience) were purchased. Secondary antibodies were affinity purified Alexa Fluor 488 goat or donkey IgG antibodies (Molecular Probes) and Cy3-conjugated IgG antibodies (Jackson ImmunoResearch laboratories). All samples were counterstained with DAPI (Sigma-Aldrich). […]
Quantification: The percentages of ki-67 positive cells, of misshapen or blebbing nuclei, and senescence β-gal positive cells were determined by direct count of 300 cells per coverslip in triplicate, and from three independent experiments. […]
To determine the role of farnesylation in HGPS nuclear abnormalities, control and HGPS fibroblast cultures (PPDs 35-38) were treated daily with 20 μM farnesyltransferase inhibitor FTI-277 (Adjei et al, 2000). […] Progerin was also detected in nuclear foci similarly to wild-type prelamin A (FIG. 6B).

Turning to `COC(=O)[C@H](CCSC)NC(=O)c1ccc(NC[C@@H](N)CS)cc1-c1ccccc1` [FTI-277], the “progerin localization (anti-LMNA G608G staining)” value was “progerin was totally depleted from the NE in most nuclei” in assay [1] (20 μM FTI-277, 76 h after treatment); “progerin was still incorporated into the nuclear lamina” in assay [1] (20 μM FTI-277, after 24 h treatment); “progerin was progressively depleted from the NE and lamina” in assay [1] (20 μM FTI-277, after 48 h treatment). The “percentage of HGPS nuclei with abnormal shapes” value in assay [2] was found to be 8%.
